Source: patent US10227331B2 (priority 2015, dated 2019)
Where two headings read alike, the source gives them in different places.

Legend:
IMP-1 = IMP-1 (Serratia marcescens, UniProt P52699); test: biochemical; format: biochemical; conditions: CCF2-FA substrate, 2 hours at 25° C; read-out: IMP-1 IC50
Outline: (§1)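 Inhibitor was mixed with the metallo-β-lactamase and CCF2-FA. After 2 hours at 25° C, fluorescence of the coumarin–fluorescein cephalosporin substrate was read. IC50 was calculated with a 4-parameter fit.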

NDM-1 = NDM-1 (Klebsiella pneumoniae, UniProt C7C422); test: biochemical; format: biochemical
Outline: as §1

VIM-1 = VIM-1 (Pseudomonas aeruginosa (strain ATCC 15692 / DSM 22644 / CIP 104116 / JCM 14847 / LMG 12228 / 1C / PRS 101 / PAO1), UniProt A0A0F7KYQ8); test: biochemical; conditions: CCF2-FA substrate, 2 hours at 25° C
Outline: as §1

[1] = test system: P. aeruginosa expressing IMP-1, efflux+ (MB9798); format: cell-based, Pseudomonas aeruginosa; conditions: for P. aeruginosa expressing IMP-1, efflux+ (MB9798) MITC95: imipenem at 2 μg/mL, in the presence of a class A, C, D serine β-lactamase inhibitor closely related to relebactam; for Efflux ratio: ratio MITC95 PA_9798/MITC95 PA_9799
Source text: (§2) The strain background is Pseudomonas aeruginosa PAO1.

[2] = test system: P. aeruginosa expressing IMP-1, efflux− (MB9799); test: Efflux: concentration of MBL inhibitor which restores susceptibility to imipenem; format: cell-based, Pseudomonas aeruginosa; conditions: imipenem at 2 μg/mL, in the presence of a class A, C, D serine β-lactamase inhibitor closely related to relebactam
Source text: as §2

[3] = test system: Escherichia coli expressing NDM-1 (CLB30005, CLB30016); format: cell-based; conditions: NDM-1 (CLB30016), with imipenem 1 μg/ml, 95% inhibition of bacterial growth
Outline: (§3)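 Colonies from overnight 35 °C blood-agar cultures were suspended in saline, diluted 1:100 into 1.1× CAMHB and exposed to test compound with or without imipenem at 1 μg/ml. After 22–24 h at 35 °C, absorbance was read to find the concentration restoring imipenem susceptibility.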

[4] = test system: Serratia marcescens expressing IMP-1 (CL5741); format: cell-based; conditions: IMP-1 (CL5741), with imipenem 1 μg/ml, 95% inhibition of bacterial growth
Outline: as §3

[5] = test system: Klebsiella pneumoniae expressing VIM-1 (IHMA599644); format: cell-based; conditions: VIM-1 (IHMA599644), with imipenem 1 μg/ml, 95% inhibition of bacterial growth
Outline: as §3

[6] = CCF2-FA substrate, 2 hours at 25° C, read-out: NDM-1 IC50

NDM-1, sequence (C7C422 whole entry, looked up, species assumed): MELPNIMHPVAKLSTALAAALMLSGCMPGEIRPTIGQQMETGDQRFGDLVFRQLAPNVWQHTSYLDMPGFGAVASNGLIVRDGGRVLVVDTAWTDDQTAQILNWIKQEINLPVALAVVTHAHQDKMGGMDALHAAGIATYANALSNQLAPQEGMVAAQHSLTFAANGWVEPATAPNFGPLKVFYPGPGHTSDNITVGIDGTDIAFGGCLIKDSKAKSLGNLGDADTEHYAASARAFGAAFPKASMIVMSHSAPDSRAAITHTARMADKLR
IMP-1, sequence (P52699 whole entry, looked up, species assumed): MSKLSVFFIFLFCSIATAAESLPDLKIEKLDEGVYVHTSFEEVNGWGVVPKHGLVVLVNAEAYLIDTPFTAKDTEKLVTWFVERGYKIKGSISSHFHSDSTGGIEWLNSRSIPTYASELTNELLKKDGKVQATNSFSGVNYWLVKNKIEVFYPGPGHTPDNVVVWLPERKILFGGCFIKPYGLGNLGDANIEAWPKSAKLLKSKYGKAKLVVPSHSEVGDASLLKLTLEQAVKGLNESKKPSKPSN

| SMILES | IC50 (IMP-1) | IC50 (NDM-1; [6]) | IC50 (VIM-1) | P. aeruginosa expressing IMP-1, efflux+ (MB9798) MITC95 [1] | Efflux ratio [1] | P. aeruginosa expressing IMP-1, efflux− (MB9799) MITC95 [2] | Escherichia coli MITC95 [3] | Serratia marcescens MITC95 [4] | Klebsiella pneumoniae MITC95 [5] | IC50 (NDM-1) |
| --- | --- | --- | --- | --- | --- | --- | --- | --- | --- | --- |
| Nc1nc2cc(C(F)(F)F)cc(-c3ccc(S(=O)(=O)C4CNC4)c(S(N)(=O)=O)c3-c3nnn[nH]3)c2[nH]1 [Example 260, 3-(2-amino-5-(trifluoromethyl)-1H-benzo[d]imidazol-7-yl)-6-(azetidin-3-ylsulfonyl)-2-(1H-tetrazol-5-yl)benzenesulfonamide] | 1.99 nM | 0.598 nM | 0.813 nM | 6.25 µM | 1.00 | 6.25 µM | 6.25 µM | 6.25 µM | 12.5 µM |  |
| N#Cc1cc(-c2ccc(S(=O)(=O)C3CNC3)c(S(N)(=O)=O)c2-c2nnn[nH]2)c2[nH]c(N)nc2c1 [Example 261, 3-(2-amino-5-cyano-1H-benzo[d]imidazol-7-yl)-6-(azetidin-3-ylsulfonyl)-2-(1H-tetrazol-5-yl) benzenesulfonamide] | 1.15 nM | 0.4 nM | 0.734 nM | 6.25 µM | 1.00 | 6.25 µM | 6.25 µM | 6.25 µM | 12.5 µM |  |
| Nc1nc2cc(F)cc(-c3ccc(S(=O)(=O)C4CNC4)c(S(N)(=O)=O)c3-c3nnn[nH]3)c2[nH]1 [Example 262, 3-(2-amino-5-fluoro-1H-benzo[d]imidazol-7-yl)-6-(azetidin-3-ylsulfonyl)-2-(1H-tetrazol-5-yl) benzenesulfonamide] | 0.506 nM | 0.0803 nM | 0.322 nM | 0.7813 µM | 1.00 | 0.7813 µM | 0.7813 µM | 1.563 µM | 3.125 µM |  |
| Nc1n[nH]c2cccc(-c3ccc(S(=O)(=O)C4CNC4)c(S(N)(=O)=O)c3-c3nnn[nH]3)c12 [Example 263, 3-(3-amino-1H-indazol-4-yl)-6-(azetidin-3-ylsulfonyl)-2-(1H-tetrazol-5-yl) benzenesulfonamide] | 4.59 nM | 0.431 nM | 0.594 nM | 6.25 µM | 2.00 | 3.125 µM | 1.563 µM | 1.563 µM | 6.25 µM |  |
| Nc1n[nH]c2ccc(-c3ccc(S(=O)(=O)C4CNC4)c(S(N)(=O)=O)c3-c3nnn[nH]3)cc12 [Example 264, 3-(3-amino-1H-indazol-5-yl)-6-(azetidin-3-ylsulfonyl)-2-(1H-tetrazol-5-yl) benzenesulfonamide] | 1.82 nM | 0.364 nM | 0.175 nM | 6.25 µM | 8.00 | 0.7813 µM | 3.125 µM | 1.563 µM | 3.125 µM |  |
| Cn1nc(N)c2c(-c3ccc(S(=O)(=O)C4CNC4)c(S(N)(=O)=O)c3-c3nnn[nH]3)cccc21 [Example 265, 3-(3-amino-1-methyl-1H-indazol-4-yl)-6-(azetidin-3-ylsulfonyl)-2-(1H-tetrazol-5-yl) benzenesulfonamide] | 1.49 nM | 0.168 nM | 0.239 nM | 6.25 µM | 4.00 | 1.563 µM | 3.125 µM | 1.563 µM | 6.25 µM |  |
| Cn1nc(N)c2c(-c3ccc(S(=O)(=O)CCN)c(S(N)(=O)=O)c3-c3nnn[nH]3)cccc21 [Example 266, 3-(3-amino-1-methyl-1H-indazol-4-yl)-6-((2-aminoethyl)sulfonyl)-2-(1H-tetrazol-5-yl) benzenesulfonamide] | 0.643 nM | 0.198 nM | 0.232 nM | 6.25 µM | 2.00 | 3.125 µM | 6.25 µM | 3.125 µM | 6.25 µM |  |
| C[C@@H](N)CS(=O)(=O)c1ccc(-c2cccc3[nH]c(N)nc23)c(-c2nn[nH]n2)c1S(N)(=O)=O [Example 267, 3-(2-amino-1H-benzo[d]imidazol-4-yl)-6-((R)-2-aminopropylsulfonyl)-2-(2H-tetrazol-5-yl)benzenesulfonamide] | 0.964 nM | 0.213 nM | 0.517 nM | 0.7813 µM | 1.00 | 0.7813 µM | 0.3906 µM | 0.7813 µM | 1.563 µM |  |
| C[C@@H](N)CS(=O)(=O)c1ccc(-c2cccc3sc(N)nc23)c(-c2nn[nH]n2)c1S(N)(=O)=O [Example 268, 3-(2-aminobenzo[d]thiazol-4-yl)-6-((R)-2-aminopropylsulfonyl)-2-(2H-tetrazol-5-yl)benzenesulfonamide] | 0.363 nM | 0.177 nM | 0.329 nM | 1.563 µM | 1.00 | 1.563 µM | 1.563 µM | 1.563 µM | 3.125 µM |  |
| CC(N)CS(=O)(=O)c1ccc(-c2cccc3sc(N)nc23)c(-c2nn[nH]n2)c1S(N)(=O)=O (stereo not drawn) [Example 269, 3-(2-aminobenzo[d]thiazol-4-yl)-6-(2-aminopropylsulfonyl)-2-(2H-tetrazol-5-yl)benzenesulfonamide] | 0.152 nM | 0.116 nM | 0.176 nM | 0.7813 µM | 1.00 | 0.7813 µM | 1.563 µM | 1.563 µM | 3.125 µM |  |
| Cl.Cl.NCCCS(=O)(=O)c1ccc(-c2cccc3[nH]c(N)nc23)c(-c2nn[nH]n2)c1S(N)(=O)=O [Example 270, 3-(2-amino-1H-benzo[d]imidazol-4-yl)-6-(3-aminopropylsulfonyl)-2-(2H-tetrazol-5-yl)benzenesulfonamide dihydrochloride] | 0.625 nM | 0.143 nM | 0.228 nM | 0.4453 µM | 1.00 | 0.4453 µM | 0.125 µM | 0.6406 µM | 0.8906 µM |  |
| NCCS(=O)(=O)c1ccc(-c2ccnc3c2CCCC3)c(-c2nn[nH]n2)c1S(N)(=O)=O [Example 271, 6-(2-aminoethylsulfonyl)-3-(5,6,7,8-tetrahydroquinolin-4-yl)-2-(2H-tetrazol-5-yl)benzenesulfonamide] | 0.687 nM | 1.33 nM | 0.177 nM | 12.5 µM | 8.00 | 1.563 µM | 3.125 µM | 3.125 µM | 3.125 µM |  |
| NCCS(=O)(=O)c1ccc(C2CCNc3ccccc32)c(-c2nn[nH]n2)c1S(N)(=O)=O (stereo not drawn) [Example 272, 6-(2-aminoethylsulfonyl)-3-(1,2,3,4-tetrahydroquinolin-4-yl)-2-(2H-tetrazol-5-yl)benzenesulfonamide] | 6.06 nM |  | 0.64 nM | 100 µM | 63.98 | 1.563 µM | 3.125 µM | 6.25 µM | 6.25 µM | 1.84 nM |
| Nc1nc2c(-c3ccc(S(=O)(=O)C[C@H](N)CO)c(S(N)(=O)=O)c3-c3nn[nH]n3)cccc2[nH]1 [Example 273, 3-(2-amino-1H-benzo[d]imidazol-4-yl)-6-((R)-2-amino-3-hydroxypropylsulfonyl)-2-(2H-tetrazol-5-yl)benzenesulfonamide] | 0.709 nM | 0.147 nM | 0.254 nM | 0.7813 µM | 1.00 | 0.7813 µM | 0.3906 µM | 1.563 µM | 1.563 µM |  |
